# Results as given in patent publication US5696140A, “N-cyano-N'-pyridylguanidines as serotonin antagonists” (Leo Pharmaceutical Products Ltd., priority 1992, dated 1997).
# Key:
# Yoshida sarcoma cells [1] = test: survival time of Yoshida tumour-bearing rats (LEW/Mol inbred female rats, oral); type: in vivo, rat; conditions: untreated 7.5 days
# Description: The prolongation of survival time of tumour-bearing rats was studied in LEW/Mol inbred female rats inoculated with Yoshida sarcoma cells (identical to the cells described above) in a number of 2×10^7 cells. Tumour-bearing rats were dosed orally once daily from day 3 after the transfer of tumour cells and until death or until the body-weights had increased by 10% as a consequence of tumour proliferation. The time for death of 50% of the animals was calculated by linear regression analysis.
# Yoshida sarcoma cells [2] = test: inhibition of Yoshida sarcoma cell proliferation in vitro ([^3 H]thymidine incorporation, 24 h); type: cell-based; conditions: Rattus norvegicus, read-out: Inhibition of tumour cell proliferation IC50
# Description: (§1) The inhibition of tumour cell proliferation was studied using Yoshida sarcoma cells, originally derived from rat hepatic tumours induced by the carcinogen o-aminoazotoluene. The cells were cultured in vitro for 24 hours in the presence of the compound under investigation. DNA synthesis was measured by incorporation of [^3 H]thymidine, and the median inhibitory concentrations (IC50) of the compounds were calculated. The cytotoxicity of the compounds in normal lymphocytes was assessed by the dye exclusion method and expressed as the concentrations resulting in 50% viability (VC50).
# [3] = cytotoxicity in normal lymphocytes, dye exclusion method; type: cell-based; conditions: concentration resulting in 50% viability, read-out: Effect on viability of normal cells VC50
# Description: as §1
# [4] = test system: human small cell lung carcinoma (NYH); test: inhibition of tumour cell proliferation in vitro, NYH; type: cell-based
# [5] = test system: human breast cancer (MCF-7); test: inhibition of tumour cell proliferation in vitro, MCF-7; type: cell-based; conditions: MCF7
# [6] = test system: human small cell lung carcinoma (NYH); test: therapeutic antitumour effect in nude mice carrying a human small cell lung carcinoma (NYH); type: in vivo, human tumour in nude mice
# Description: In addition the antitumour effect of the compounds of the present invention was determined in nude mice carrying a human small cell lung carcinoma (NYH).
# Nude mice were inoculated subcutaneously with a 0.2 ml NYH cell suspension (5×10^7 cells/ml). Two weeks after inoculum animals were divided in treatment and control groups. All mice were dosed p.o. once daily according to group from day 14 to 28.
smiles,measurement,setting,value
"Sc1ncnc2nc[nH]c12 [6-Mercaptopurine, reference compound]",Time to 50% of animals dead of cancer,Yoshida sarcoma cells [1]; 10 mg/kg p.o. once daily,12.2 days
"O=P1(N(CCCl)CCCl)NCCCO1 (stereo not drawn) [Cyclophosphamide, reference compound]",Time to 50% of animals dead of cancer,Yoshida sarcoma cells [1]; 0.3 mg/kg p.o. once daily,19.1 days
"N#CN=C(NCCCOc1ccccc1)Nc1ccncc1 [Example No. 5, N-Cyano-N'-(3-phenoxypropyl)-N""-4-pyridylquanidine]",IC50,Yoshida sarcoma cells [2],3300 nM
same,Time to 50% of animals dead of cancer,Yoshida sarcoma cells [1]; 10 mg/kg p.o. once daily,12.0 days
same,Time to 50% of animals dead of cancer,Yoshida sarcoma cells [1]; 20 mg/kg p.o. once daily,15.5 days
same,Time to 50% of animals dead of cancer,Yoshida sarcoma cells [1]; 50 mg/kg p.o. once daily,a (No rats had died on day 14. Calculation of 50% dead not possible.)
same,Time to 50% of animals dead of cancer,Yoshida sarcoma cells [1]; 100 mg/kg p.o. once daily,a (No rats had died on day 14. Calculation of 50% dead not possible.)
same,CC50,[3],> 100000 nM
"N#CN=C(NCCCCOc1ccccc1)Nc1ccncc1 [Example No. 14, N-Cyano-N'-(4-phenoxybutyl)-N""-4-pyridylquanidine]",IC50,Yoshida sarcoma cells [2],170 nM
same,Time to 50% of animals dead of cancer,Yoshida sarcoma cells [1]; 20 mg/kg p.o. once daily,10.8 days
same,CC50,[3],100000 nM
"N#CN=C(NCCCCCOc1ccccc1)Nc1ccncc1 [Example No. 18, N-Cyano-N'-(5-phenoxypentyl)-N""-4-pyridylquanidine]",IC50,Yoshida sarcoma cells [2],750 nM
same,Time to 50% of animals dead of cancer,Yoshida sarcoma cells [1]; 20 mg/kg p.o. once daily,11.0 days
same,CC50,[3],> 100000 nM
"N#CNC(=Nc1ccncc1)NCCCCCCCOc1ccccc1 [Example No. 33, N-Cyano-N'-(7-phenoxyheptyl)-N""-4-pyridylguanidine]",IC50,[4],0.58 nM
same,IC50,[5],6.2 nM
"N#CN=C(NCCCCCCOc1ccc(Cl)cc1)Nc1ccncc1 [Example No. 43, N-(6-p-Chlorophenoxyhexyl)-N'-cyano-N""-4-pyridylquanidine]",IC50,[4],1.9 nM
same,tumour areas (range),"[6]; 25 mg/kg p.o. once daily day 14 to 28, day 11 (before dosing)",12-36 mm^2
same,tumour areas (range),"[6]; 25 mg/kg p.o. once daily day 14 to 28, day 14",23-58 mm^2
same,tumour areas (range),"[6]; 25 mg/kg p.o. once daily day 14 to 28, day 18, p < 0.05 vs untreated or vehicle",12-59 mm^2
same,tumour areas (range),"[6]; 25 mg/kg p.o. once daily day 14 to 28, day 21, p < 0.05 vs untreated or vehicle",11-18 mm^2
same,tumour areas (range),"[6]; 25 mg/kg p.o. once daily day 14 to 28, day 25, p < 0.05 vs untreated or vehicle",4-14 mm^2
same,tumour areas (range),"[6]; 25 mg/kg p.o. once daily day 14 to 28, day 28, p < 0.05 vs untreated or vehicle",0--0 mm^2
same,Number of tumours,"[6]; 25 mg/kg p.o., day 11 (before dosing)",6
same,Number of tumours,"[6]; 25 mg/kg p.o., day 14",8
same,Number of tumours,"[6]; 25 mg/kg p.o., day 18",8
same,Number of tumours,"[6]; 25 mg/kg p.o., day 21",5
same,Number of tumours,"[6]; 25 mg/kg p.o., day 25",3
same,Number of tumours,"[6]; 25 mg/kg p.o., day 28",0
same,tumour areas (range),"[6]; 50 mg/kg p.o. once daily day 14 to 28, day 11 (before dosing)",17-64 mm^2
same,tumour areas (range),"[6]; 50 mg/kg p.o. once daily day 14 to 28, day 14",16-131 mm^2
same,tumour areas (range),"[6]; 50 mg/kg p.o. once daily day 14 to 28, day 18, p < 0.05 vs untreated or vehicle",8-109 mm^2
same,tumour areas (range),"[6]; 50 mg/kg p.o. once daily day 14 to 28, day 21, p < 0.05 vs untreated or vehicle",6-40 mm^2
same,tumour areas (range),"[6]; 50 mg/kg p.o. once daily day 14 to 28, day 25, p < 0.05 vs untreated or vehicle",3-27 mm^2
same,tumour areas (range),"[6]; 50 mg/kg p.o. once daily day 14 to 28, day 28, p < 0.05 vs untreated or vehicle",0--0 mm^2
same,Number of tumours,"[6]; 50 mg/kg p.o., day 11 (before dosing)",6
same,Number of tumours,"[6]; 50 mg/kg p.o., day 14",10
same,Number of tumours,"[6]; 50 mg/kg p.o., day 18",10
same,Number of tumours,"[6]; 50 mg/kg p.o., day 21",5
same,Number of tumours,"[6]; 50 mg/kg p.o., day 25",5
same,Number of tumours,"[6]; 50 mg/kg p.o., day 28",0
same,IC50,[5],21 nM
"N#CNC(=NCCCCCCOc1cc(Cl)c(Cl)cc1Cl)Nc1ccncc1 [Example No. 52, N-Cyano-N'-4-pyridyl-N""-(6-(2,4,5-trichlorophenoxy)hexyl)guanidine]",IC50,[4],1.4 nM
same,IC50,[5],4.3 nM
"COc1ccccc1OCCCCCCNC(=NC#N)Nc1ccncc1 [Example No. 53, N-Cyano-N'-(6-o-methoxyphenoxyhexyl)-N""-4-pyridylquanidine]",IC50,[4],0.52 nM
same,IC50,[5],0.74 nM
"N#CN=C(NCCCCCCOc1ccccc1Cl)Nc1ccncc1 [Example No. 54, N-(6-o-Chlorophenoxyhexyl)-N'-cyano-N""-4-pyridylquanidine]",IC50,[4],0.59 nM
same,IC50,[5],1.4 nM
